Data taken from US11639364B2, “Potent sialyltransferase inhibitors” (STICHTING RADBOUD UNIVERSITEIT, priority 2018, dated 2023).
Read-outs that look alike come from different tables or passages of the source.

Key:
[1] = system: B16-F10 cells; experiment: Inhibition of cell surface sialylation by urea, thiocarbamate and sulphonamide analogues (Example 5); type: cell-based, Mouse; conditions: for IC50: three days, 0.1-204.8 μM
Protocol: (§1) Mouse B16-F10 melanoma cells (ATCC CRL-6475) were cultured in Minimum Essential Medium (MEM) (Gibco, Invitrogen, Carlsbad, Calif.) containing 5% fetal bovine serum (FBS) (Greiner Bio-one, Frickenhausen, Germany), 1% MEM non-essential amino acids (Gibco), 0.15% sodium bicarbonate (Gibco), 1 mM sodium pyruvate (Gibco), 1.5% MEM vitamins (Gibco), 1% antibiotic-antimycotic solution (50 U/ml penicillin, 50 μg/ml streptomycin and 125 ng/ml amphotericin B) (Gibco). The murine 9464D neuroblastoma cell line was cultured in Dulbecco's Modified Eagle's Medium (DMEM, Glutamax, Gibco) with 10% FBS, 1% non-essential amino acids, 50 μM 2-mercaptoethanol (Sigma-Aldrich) and 1% antibiotic-antimycotic solution (Kroesen et al., 2014, DOI: 10.1002/ijc.28463, Stauffer et al., 2012, DOI: 10.3109/07357907.2012.664670). The murine EL4 T lymphocyte cell line (ATCC TIB-39) was cultured in Iscove's Modified Dulbecco's Medium (IMDM, Gibco) supplemented with 5% FBS and 1% antibiotic-antimycotic solution. Human HEK293 (ATCC CRL-1573) kidney cells and human HeLa (ATCC CCL-2) cervical cancer cells were cultured in DMEM containing 10% FBS, 2 mM glutamine (Lonza, Walkersville, Md.) and 1% antibiotic-antimycotic solution. Human monocytic THP-1 cells (TIB-202, ATCC) were cultured in RRMI-1640 medium (Gibco) supplemented with 10% FBS, 2 mM glutamine and 1% antibiotic-antimycotic solution. All cell lines were cultured in a humidified 5% CO2 incubator at 37° C.
(§2) For the lectin staining, all cells were harvested and washed with 1× carbo-free blocking solution (Vector Laboratories, Inc., Burlingame, Calif., USA) and stained for 45 minutes at 4° C. in 1× carbo-free blocking solution containing 1 mM CaCl2), 1 mM MgCl2 and biotinylated MALII (5 μg/ml), SNA-1 (1 μg/ml) or PNA (5 μg/ml) all obtained from Vector Laboratories Inc. MALII recognizes α2,3-linked sialic acids, SNA-1 recognizes α2,6-linked sialic acids and PNA binds to terminal 3-galactose. In addition, B16-F10 cells were stained with 2 μg/ml biotinylated AAL (α-linked Fucose), LCA (α-linked Mannose), PHA-L (complex glycans), GSL-I (α-linked Galactose and N-Acetylgalactosamine), WGA (chitobiose), SJA (β-linked Galactose and N-Acetylgalactosamine) and PSA (Glucose and Mannose) purchased from Vector Laboratories Inc. Next, the cells were washed thrice in PBA (1×PBS, 1% BSA, and 0.02% sodium azide) and stained for 10 minutes at 4° C. with 2 μg/ml streptavidin-phycoerythrin (PE) (BD Pharmingen, Franklin Lakes, N.J., USA). The cells were washed thrice again with PBA and fluorescence was assessed using a CyAn ADP flow cytometer (BD Biosciences, San Jose, Calif.) followed by analysis with FlowJo software (Tree Star Inc., Ashland, Oreg.). Untreated cells stained with streptavidin-PE only served as background fluorescence control. The percentages lectin binding was calculated by normalizing the mean fluorescence intensity values from the treated cells with the DMSO controls.
(§3) IC50 values and statistics were calculated using Prism 5.03 (GraphPad Software, Inc., La Jolla, Calif.). Statistical significance between the different groups was calculated using one-way ANOVA followed by Bonferroni post-hoc testing and P-values<0.05 were considered significant (p<0.05 *, p<0.01 **, p<0.001 ***).
Analogous to example 3, the inhibitory potency of thiocarbamate 28, urea 29, and sulphonamides 30 and 31 on the sialic acid biosynthesis was assayed. To this end, B16-F10 cells were fed sialic acid precursors for three day at various concentrations (0.1-204.8 μM). The decrease in cell surface sialylation was measured using biotinylated lectins that are specific for binding α2,3-linked (MALII) or α2,6-linked (SNA-1) sialic acid residues, subsequently visualized using streptavidin-phycoerythrin. Conversely, binding of the underlying galactose residue uncovered by desialylation was measured using a galactose specific lectin (Peanut, Agglutinin Lectin, PNA). No inhibition was observed without a P-3Fax-Neu derivative present (DMSO vehicle control). […]

[2] = system: B16-F10 cells; experiment: Inhibition of cell surface sialylation, lectin staining and flow cytometry, B16-F10 cells; type: cell-based, Mouse; conditions: three days
Protocol: as §1
(§4) To assess the effect of the synthesized compounds on cell surface sialylation, different murine and human cell lines were cultured for three days in the presence of 0-204.8 μM amide and carbamate fluorine sialic acids. Cells treated with an equal final percentage of DMSO were used as control and all cells were subjected to lectin staining and flow cytometry as described below. To investigate the longevity of the effect of the fluorine sialic acids on cell surface sialylation, B16-F10 cells treated with 25.6 μM or 51.2 μM were thoroughly washed with medium to remove fluorine sialic acids from the culture and reseeded. During a period of six days, cells were harvested every day and sialylation was assessed by flow cytometry.
as §2
as §3, with “***). […]” for “***).”

[3] = system: HEK293 cells; experiment: Inhibition of cell surface sialylation, lectin staining and flow cytometry, HEK293 cells; type: cell-based, Human; conditions: three days
Protocol: as §1, §4, §2
as §3, with “***). […]” for “***).”

[4] = system: 9464D cells; experiment: Inhibition of cell surface sialylation, lectin staining and flow cytometry, 9464D cells; type: cell-based, murine; conditions: three days
Protocol: as §1, §4, §2
as §3, with “***). […]” for “***).”

[5] = system: EL4 cells; experiment: Inhibition of cell surface sialylation, lectin staining and flow cytometry, EL4 cells; type: cell-based, murine; conditions: three days
Protocol: as §1, §4, §2
as §3, with “***). […]” for “***).”

[6] = system: HeLa cells; experiment: Inhibition of cell surface sialylation, lectin staining and flow cytometry, HeLa cells; type: cell-based, human; conditions: three days
Protocol: as §1, §4, §2
as §3, with “***). […]” for “***).”

[7] = system: THP-1 cells; experiment: Inhibition of cell surface sialylation, lectin staining and flow cytometry, THP-1 cells; type: cell-based, Human; conditions: three days
Protocol: as §1, §4, §2
as §3, with “***). […]” for “***).”

[8] = Example 5, read-out: α2,3-Sia IC50 (MAL)
[9] = Example 5, read-out: α2,6-Sia IC50 (SNA)
[10] = Mus musculus, 72 h, MALII lectin binding, read-out: α2,3-Sia IC50
[11] = Mus musculus, 72 h, SNA-I lectin binding, read-out: α2,6-Sia IC50
[12] = Homo sapiens, 72 h, MALII lectin binding, read-out: α2,3-Sia IC50
[13] = Homo sapiens, 72 h, SNA-I lectin binding, read-out: α2,6-Sia IC50
[14] = MALII lectin binding, read-out: α2,3-Sia IC50
[15] = SNA-I lectin binding, read-out: α2,6-Sia IC50

| IC50 [2, 10] | IC50 [2, 11] | IC50 [4, 10] | IC50 [4, 11] | IC50 [5, 10] | IC50 [5, 11] | IC50 [6, 12] | IC50 [6, 13] | IC50 [7, 12] | IC50 [7, 13] | Compound | IC50 [1, 8] | IC50 [1, 9] | IC50 [3, 12] | IC50 [3, 13] | further results |
| --- | --- | --- | --- | --- | --- | --- | --- | --- | --- | --- | --- | --- | --- | --- | --- |
|  |  |  |  |  |  |  |  |  |  | Methyl 5-N-ethylamidnocarbonyl)-2,4,7,8,9-penta-O-acetyl-3,5-dideoxy-3-fluoro-D-glycero-β-galacto-non-2-ulopyranosonate [Urea 29] | 4.2 µM | 4.89 µM |  |  |  |
|  |  |  |  |  |  |  |  |  |  | Methyl 5-(S-ethylthiocarbamado)-2,4,7,8,9-penta-O-acetyl-3,5-dideoxy-3-fluoro-D-glycero-β-galacto-non-2-ulopyranosonate [Thiocarbamate 28] | 1.68 µM | 4.83 µM |  |  |  |
|  |  |  |  |  |  |  |  |  |  | Methyl 5-(methylsulfonamido)-2,4,7,8,9-penta-O-acetyl-3,5-dideoxy-3-fluoro-D-glycero-β-galacto-non-2-ulopyranosonate [Sulphonamide 30] | 9.9 µM |  |  |  | inhibition of sialylation compared with the acetate ([1]; FIG. 8): outperforming the acetate at various concentrations |
| 1.78 ± 0.16 µM | 3.87 ± 1.14 µM | 8.91 ± 2.38 µM | 28.1 ± 5.51 µM | 42 ± 11 µM | 50.6 ± 8.84 µM | 2.02 ± 1.52 µM | 1.67 ± 1.31 µM | 0.45 ± 0.74 µM | 0.37 µM | CCOC(=O)N[C@@H]1C(OC(C)=O)C(F)C(OC(C)=O)(C(=O)OC)OC1[C@H](OC(C)=O)[C@@H](COC(C)=O)OC(C)=O (stereo partly drawn) [SiaFEt, Methyl 5-(ethylcarbamado)-2,4,7,8,9-penta-O-acetyl-3,5-dideoxy-3-fluoro-D-glycero-β-galacto-non-2-ulopyranosonate] |  |  | 2.02 ± 2.72 µM | 1.57 ± 4.23 µM | IC50 ([1]; Mus musculus, 72 h, Example 5, read-out: α2,3-Sia IC50 (MAL)): 0.929 µM; IC50 ([1]; Mus musculus, 72 h, Example 5, read-out: α2,6-Sia IC50 (SNA)): 3.92 µM |
|  |  |  |  |  |  |  |  |  |  | COC(=O)C1(OC(C)=O)O[C@@H]([C@H](OC(C)=O)[C@@H](COC(C)=O)OC(C)=O)[C@H](NC(C)=O)[C@@H](OC(C)=O)[C@H]1F (stereo partly drawn) [SiaFAc, Methyl 5-(acetamido)-2,4,7,8,9-penta-O-acetyl-3,5-dideoxy-3-fluoro-D-glycero-β-galacto-non-2-ulopyranosonate, reference compound] |  | 20.9 µM |  |  | IC50 [2, 14]: 26.8 ± 5.72 µM; IC50 [2, 15]: 32.8 ± 3.08 µM; IC50 [3, 14]: 45.2 ± 8.3 µM; IC50 [3, 15]: 36.7 ± 3.59 µM; IC50 [4, 14]: > 102 µM; IC50 [4, 15]: > 102 µM; IC50 [5, 14]: > 102 µM; IC50 [5, 15]: > 102 µM; IC50 [6, 14]: 53 ± 3.61 µM; IC50 [6, 15]: 34.5 ± 2.18 µM; IC50 [7, 14]: 8.5 ± 1.54 µM; IC50 [7, 15]: 10.9 ± 2.47 µM |
| 40.6 ± 5.67 µM | 52.5 ± 4.31 µM | > 102 µM | > 102 µM | > 102 µM | > 102 µM | 62.3 ± 3.91 µM | 51.2 ± 6.06 µM | 10.4 ± 2.14 µM | 12.6 ± 3.51 µM | C#CCCC(=O)N[C@@H]1C(OC(C)=O)C(F)C(OC(C)=O)(C(=O)OC)OC1[C@H](OC(C)=O)[C@@H](COC(C)=O)OC(C)=O (stereo partly drawn) [SiaFPen, Methyl 5-(4-pentynacetamido)-2,4,7,8,9-penta-O-acetyl-3,5-dideoxy-3-fluoro-D-glycero-β-galacto-non-2-ulopyranosonate, reference compound] |  |  | 26.2 ± 2.37 µM | 44.7 ± 4.33 µM |  |
